Each structure is given as a SMILES string.

The text below walks through data of patent US20150113681A1, “COMPOSITION AND METHOD FOR ENHANCING PLANT TRANSFORMATION” (SYNGENTA PARTICIPATIONS AG, priority 2013, published 2015).

One experiment has as its system sugarcane callus. Nature of the experiment: Sugarcane transformation, glyphosate/EPSPS selection with differing sucrose levels in selection media. The experiment is classed as cell-based, sugarcane (Saccharum). Here is the method:
The method of the present invention includes embryogenic responses initiated and/or cultures established from sugar cane young leave rolls by culturing on callus induction medium. Established embryogenic cultures were weighted, and then inoculated and co-cultivated with the Agrobacterium tumefaciens strain EHA101 (Agrobacterium) containing the desired vector construction. Agrobacterium was cultured from glycerol stocks on solid YPC medium (100 mg/L spectinomycin and any other appropriate antibiotic) for about two days at 28° C. Agrobacterium is re-suspended in liquid MS-D2 medium. The Agrobacterium culture was diluted to an OD600 of 0.3-0.4 and acetosyringone is added to a final concentration of 400 uM. Acetosyringone was added before mixing the solution with the sugar cane cultures to induce Agrobacterium for DNA transfer to the plant cells. For inoculation, the cultures were immersed in the bacterial suspension. The liquid bacterial suspension is removed and the inoculated cultures were placed on empty plate for co-cultivation and incubated at 22° C. for two days. The cultures were then transferred to callus induction medium with Ticarcillin (400 mg/liter) to inhibit the growth of Agrobacterium and cultured for 4-10 days at 28° C. in dark. Referring to Table 3 below, for constructs utilizing the EPSPS selectable marker gene, cultures are transferred to selection S1 medium containing glyphosate as the selection agent and 400 mg/liter Ticarcillin and cultured for 3-4 weeks in the dark. For different treatments, the concentration of sucrose varied from 0 to 30 g/l and glyphosate level varied from 0.1 to 5 mM. […] Resistant colonies were then transferred to regeneration medium, and grown in the dark for 7 days, and then moved to the light growth room for 14 days. Regenerated shoots were transferred Rooting media for 3-4 weeks and then moved to the greenhouse when they are large enough and have adequate roots. Plants are transplanted to soil in the greenhouse (To generation), and grown to maturity.

In experiment [1] the test system is maize immature embryos. The experiment in a line: Maize transformation, glyphosate/EPSPS selection with differing sucrose levels in selection media. Format: cell-based, Zea mays (corn). The note with it: glyphosate selection. On the procedure: (§1) Transformation of immature maize embryos is performed essentially as described in Negrotto et al., (2000) Plant Cell Reports 19: 798-803. Various media constituents described therein can be substituted. For example, the selectable marker gene and the selection agent can be modified, as in the examples below.
(§2) The genes used for transformation are cloned into a vector suitable for maize transformation as described above. Vectors used contain the either the PAT gene or the EPSPS gene as a selectable marker. PAT confers resistance to bialaphose, and EPSPS confers resistance to glyphosate.
(§3) Preparation of Agrobacterium tumefaciens: Agrobacterium strain LBA4404 (pSB1) containing the plant transformation plasmid is grown on YPC (yeast extract (5 g/L), peptone (10 g/L), NaCl (5 g/L), CaCl2.2H2O (1 g/L), 15 g/l agar, pH 6.8) solid medium for 2 to 4 days at 28° C. Approximately 0.8×10^9 Agrobacteria are suspended in inoculation medium supplemented with 100 μM acetosyringone (As) Bacteria are pre-induced in this medium for about 20 to 240 minutes.
(§4) Inoculation: Immature embryos from are excised from 8-12 day old ears after pollination. The isolated mixture of endosperms with immature embryos are suspended in the inoculation medium and poured through a 1500 um sieve after shaking. The immature embryos are captured on a 380 um sieve after pouring the suspension through. Immature embryos are gently removed from the sieve and suspended in Agrobacterium suspension on co-cultivation medium using a sterile scalpel blade after 5 min 45° C. heat shock. The immature embryo suspension is spread evenly on the co-cultivation medium and the excess Agrobacterium suspension is removed using a sterile transfer pipette and filter papers. The immature embryos are then spaced and flipped with round scutellum side up and then cultured in the dark for two to three days. Subsequently, between 20 and 45 embryos per petri plate are transferred to the medium AW5Dicamba100Ti and cultured in the dark for 28° C. for 10-14 days for callus induction.
Following co-cultivation and callus induction, the transformed calli are step-wisely selected on MS medium or MS medium contained differing concentrations of sucrose (5, 10 and 20, g/l) and glyphosate (2 mg/l) as indicated in Table 2.
In one embodiment of the present invention, in an incubation selection period referred to in Table 2 as S1, 10-20 calli from callus induction medium were transferred onto selection medium S1 and cultured for approximately 2 weeks at 28° C. in the dark. Each callus is originated from an immature embryo.
For the selection period referred to as S2, about 9 to 10 calli cultured in selection step S1 were transferred to each plate containing selection medium S2 and then cultured for approximately 2 weeks at 28° C. in dark.
For the selection period referred to as S3, about 9 to 10 calli cultured in selection period S2 were transferred to selection medium of selection period S3 containing 20 g/l sucrose and 2 mM glyphosate. and cultured for approximately 2 weeks at 28° C. in the dark.
In another embodiment and referring to Table 2, about 10 to 20 calli per plate from callus induction medium were transferred onto selection medium of selection period S1. and cultured for approximately 2-3 weeks at 28° C. in the dark. Each callus was originated from an immature embryo. About 9 to 10 calli per plates were transferred to selection medium of selection period S2. and cultured for approximately 2 weeks at 28° C. in the dark.
Regeneration of Transformed Plants: Glyphosate-resistant embryogenic callus were selected under dissecting microscope and 4 embryogenic calli per plate were transferred to regeneration medium. and cultured for approximately 2 weeks at 28° C. in the dark. The cultures were subsequently transferred to a light room for 14 days at 25° C. with a 16 hour photoperiod. […]

Experiment [2] deals with maize immature embryos. The experiment in a line: Maize transformation, bialaphos/PAT selection with differing sucrose levels in selection media. The experiment is classed as cell-based, Zea mays (corn). On the procedure:
as §1, §2, §3, §4
Following co-cultivation and callus induction, the transformed calli are step-wise selected on MS medium or MS medium containing alternating concentrations of sucrose (5, 10 and 20, g/l) and bialaphos (5 and 7.5 mg/l) as indicated in Table 1. The controls comprise calli selected on MS medium supplemented with 20 g/l sucrose and 5 or 7.5 mg/l bialaphos for 4 to 6 weeks at 2 to 3 week intervals.
In a first selection period referred to in Table 1 as 51, about 10-20 calli are transferred from callus induction medium comprising 30 g/L sucrose onto 51 medium MS medium contained 5 g/l sucrose and 7.5 mg/l bialaphos and cultured for approximately 2 weeks at 28° C. in the dark. Each callus was originated from an immature embryo. For the second selection period, referred to in Table 1 as S2, about 9 to 10 calli of 51 are transferred to each plate containing S2 medium comprising 10 g/l sucrose and 7.5 mg/l bialaphose and then cultured for approximately 2 weeks at 28° C. in dark. For the third selection period referred to as S3, 9 to 10 calli are transferred from each S2 plate to S3 medium contained 20 g/l sucrose and 5 mg/l bialaphos and cultured for approximately 2 weeks at 28° C. in dark.
In another embodiment of the invention, in the first selection period S1 about 10 to 20 calli from each plate were transferred from callus induction medium comprising 30 g/L sucrose onto S1 medium containing 10 g/L of sucrose and 7.5 mg/l bialaphos and cultured for approximately 3 weeks at 28° C. in the dark. Each callus was originated from an immature embryo. 9 to 10 calli per plate were transferred from the S1 medium to S3 medium containing 20 g/L of sucrose and cultured for 2 weeks at 28° C. in dark. […]

The mark [3] stands for this setting: control, 20 g/L sucrose, bialaphos selection.

For the molecule `OC[C@H]1O[C@@](CO)(O[C@H]2O[C@H](CO)[C@@H](O)[C@H](O)[C@H]2O)[C@@H](O)[C@@H]1O` [sucrose], the transformation frequency in the experiment on sugarcane callus (altering sucrose level and adjusting glyphosate concentration in step-wise selection) is on record as above 7 % per gram fresh tissue; in the experiment with sugarcane callus (sucrose concentration reduced to 5 g/l in selection medium), 2.4 % per gram of fresh tissues; in the experiment on sugarcane callus (sucrose concentration reduced to 10 and 15 g/l) it was “improved”; in the experiment with maize immature embryos [2] (5 g/L sucrose in bialaphos selection media, first round of selection (S1)), 23.5%; with maize immature embryos [2] (10 g/L sucrose in bialaphos selection media, first round of selection (S1)), 16.9%; in the experiment with maize immature embryos [2] (setting [3]), 7.6%. For the same molecule, in the experiment with sugarcane callus (standard control, MS medium with 30 g/l sucrose and 3 mM glyphosate), the “recovery of transgenic plants” value is listed as “no transgenic plants were recovered”. The regeneration frequency in the experiment with maize immature embryos [1] (sucrose 5 g/L in S2 followed by 20 g/L in S3) is 87.4%; in the experiment with maize immature embryos [1] (sucrose 10 g/L in S2 followed by 20 g/L in S3) it was 86.4%; in the experiment on maize immature embryos [1] (negative control, sucrose 20 g/L), 7.9%; in the experiment with maize immature embryos [2] (5 and 10 g/L sucrose in S1 bialaphos selection) it was “more than 65%”; in the experiment on maize immature embryos [2] (setting [3]) it was 37.4%. Further, in the experiment with maize immature embryos [1] (sucrose 5 g/L in second round (S2) followed by 20 g/L in third round (S3)), the “frequency of independent stable transgenic events (transformation frequency)” value is on record as 29.5%. The “frequency of independent stable transgenic events” value in the experiment on maize immature embryos [1] (sucrose 10 g/L in second round (S2) followed by 20 g/L in third round (S3)) amounted to 18.3%; in the experiment on maize immature embryos [1] (negative control, standard sucrose concentration 20 g/L) it was 4.8%. The “transformation frequency increase compared to the control” value in the experiment on maize immature embryos [2] (5 g/L sucrose in S1 bialaphos selection vs 20 g/L control) is 3.1 fold; in the experiment with maize immature embryos [2] (10 g/L sucrose in S1 bialaphos selection vs 20 g/L control), 2.2 fold. In addition, the escape rate worked out at 2.4% with maize immature embryos [2] (5 g/L sucrose, bialaphos selection) and 11.8% with maize immature embryos [2] (setting [3]).
